What was measured:
Plasma stability, mouse = format: in vitro ADME
Plasma stability, human = format: in vitro ADME
TNF-α induced NF-κB = assay: TNF-α-induced NF-κB luciferase reporter counterscreen, HEK293T; format: cell-based, human
[1] = tested on: noncanonical NF-κB activation induced by BAFF; assay: NF-κB luciferase in 697 pre-B leukemia cells, BAFF; settings: 697 cells, 10 μM
Protocol: (§1) Luciferase activity was measured 24 h later (mean±SD; n=3).
(§2) Gene reporter assays: HEK293T or 697 cells containing integrated 5×NFκB-driven luciferase reporter gene were seeded into 96-well plates at 10^4 to 10^5 cells per well, and treated with respective inducers for 16 to 24 hours. […] The next day, cells were transfected with 50 ng pNF-κB-LUC (Clontech) and 5 ng Renilla luciferase gene driven by a constitutive TK promoter (pRL-TK; Promega) along with indicated plasmids. After 24 h of transfection in some experiments, cells were stimulated with various agents for 24 h or directly lysed and luciferase activities were assayed using the Dual Luciferase kit (Promega). The results for firefly luciferase activity were normalized to renilla luciferase activity. […] The mean results were obtained from triplicates.

[2] = Plasma protein binding, human; format: in vitro ADME; settings: for Plasma Protein Binding (% Bound): Human
NOD2 = NOD2 (Homo sapiens, UniProt Q9HC29); assay: Subcellular fractionation of MCF-7 cells expressing tagged NOD2; settings: MCF-7, 5 μM, 24 h
Protocol: After 24 h treatment, cytosolic and membrane subcellular fractions were isolated and analyzed (10 μg protein) by immunoblotting using antibodies specific for α-tubulin (cytosolic marker), pan-cadherin (plasma membrane marker), NOD2 (using anti-FLAG antibodies) and RIP2.
For subcellular fractionation, cytosolic fractions were obtained by extensive resuspension of cell pellets into buffer A (10 mM Hepes 7.5, 1.5 mM MgCl2, 10 mM KCl, 0.5 mM DTT and protease inhibitors). […] Immunoblotting was performed using respective antibodies. Total lysates (50-60 μg) and subcellular fractions (10 μg) were also immunoblotted after protein quantification (Bio-Rad Protein Assay).

TLR1, 2, 4, 5, 6 and 8 = assay: NF-κB SEAP reporter in PMA-differentiated THP.1 macrophages, TLR agonists; format: cell-based, human; settings: 5 μM, 24 h
Protocol: After 24 h incubation, SLAP activity in culture supernatants was measured, expressing data as percentage relative to treatment with inducer only (indicated as 100%; mean±SEM, n=2).
Human myelomonocytic THP-1 cells containing a NF-κB/AP-1-inducible reporter gene encoding secreted alkaline phosphatase (SEAP) were employed for convenient monitoring of NF-κB activity.
THP.1-Blue™ monocytic cells (Invivogen), stably containing NF-κB-driven secreted alkaline phosphatase reporter (SEAP), were plated and further treated as indicated. Stimulation was accessed colorimetrically measuring SEAP secreted into culture supernatants (QUANTI-Blue'm, Invivogen), using SpectraMax 190 plate reader (Molecular Devices).

TLR9 = molecular target: T1, TLR9 (Homo sapiens, UniProt Q9NR96); assay: NF-κB luciferase in 697 pre-B leukemia cells, TLR9 ligand CpG DNA; settings: 697 cells, 10 μM
T1 sequence (Q9NR96 26-1032): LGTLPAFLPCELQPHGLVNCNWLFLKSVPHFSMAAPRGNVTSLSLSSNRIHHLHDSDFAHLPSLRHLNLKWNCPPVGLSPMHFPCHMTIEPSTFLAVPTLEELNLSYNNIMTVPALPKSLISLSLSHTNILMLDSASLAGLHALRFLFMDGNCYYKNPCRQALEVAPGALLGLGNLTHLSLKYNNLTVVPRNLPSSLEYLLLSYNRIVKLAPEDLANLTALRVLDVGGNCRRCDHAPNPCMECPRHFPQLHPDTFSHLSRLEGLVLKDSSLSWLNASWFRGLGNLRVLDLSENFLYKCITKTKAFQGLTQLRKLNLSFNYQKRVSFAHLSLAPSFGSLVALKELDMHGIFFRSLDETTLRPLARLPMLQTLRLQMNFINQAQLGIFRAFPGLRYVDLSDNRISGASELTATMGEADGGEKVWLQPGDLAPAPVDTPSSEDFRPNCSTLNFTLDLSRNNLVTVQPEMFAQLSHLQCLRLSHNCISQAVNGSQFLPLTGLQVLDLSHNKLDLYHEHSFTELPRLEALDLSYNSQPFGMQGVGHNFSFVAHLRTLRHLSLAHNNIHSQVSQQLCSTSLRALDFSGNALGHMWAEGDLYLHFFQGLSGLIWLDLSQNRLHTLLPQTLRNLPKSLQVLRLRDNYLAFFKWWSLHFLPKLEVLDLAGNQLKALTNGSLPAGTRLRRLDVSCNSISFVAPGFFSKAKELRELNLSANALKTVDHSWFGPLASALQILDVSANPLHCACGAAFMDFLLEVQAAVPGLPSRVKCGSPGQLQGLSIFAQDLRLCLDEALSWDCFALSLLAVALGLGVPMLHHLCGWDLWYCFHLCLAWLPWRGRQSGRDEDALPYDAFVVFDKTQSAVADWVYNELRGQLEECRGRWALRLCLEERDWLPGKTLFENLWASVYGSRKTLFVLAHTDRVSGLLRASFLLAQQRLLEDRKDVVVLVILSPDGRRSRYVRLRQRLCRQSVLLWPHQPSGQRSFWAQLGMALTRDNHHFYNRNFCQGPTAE
Protocol: as §1, §2

[3] = molecular target: NOD1 association with RIP2, Bid, or SGT-1 (Homo sapiens, UniProt Q9Y239); assay: Co-immunoprecipitation of NOD1 with interacting proteins, HEK 293T; format: cell-based; settings: over-expressing conditions, 5 μM
[4] = Microsomal stability, mouse; format: in vitro ADME
[5] = Plasma protein binding, mouse; format: in vitro ADME; settings: for Plasma Protein Binding (% Bound): Mouse
NOD1 = molecular target: T2, NOD1 (Homo sapiens, UniProt Q9Y239); assay: γ-tri-DAP-induced IkBα mRNA expression; format: cell-based
T2 sequence (Q9Y239 1-953): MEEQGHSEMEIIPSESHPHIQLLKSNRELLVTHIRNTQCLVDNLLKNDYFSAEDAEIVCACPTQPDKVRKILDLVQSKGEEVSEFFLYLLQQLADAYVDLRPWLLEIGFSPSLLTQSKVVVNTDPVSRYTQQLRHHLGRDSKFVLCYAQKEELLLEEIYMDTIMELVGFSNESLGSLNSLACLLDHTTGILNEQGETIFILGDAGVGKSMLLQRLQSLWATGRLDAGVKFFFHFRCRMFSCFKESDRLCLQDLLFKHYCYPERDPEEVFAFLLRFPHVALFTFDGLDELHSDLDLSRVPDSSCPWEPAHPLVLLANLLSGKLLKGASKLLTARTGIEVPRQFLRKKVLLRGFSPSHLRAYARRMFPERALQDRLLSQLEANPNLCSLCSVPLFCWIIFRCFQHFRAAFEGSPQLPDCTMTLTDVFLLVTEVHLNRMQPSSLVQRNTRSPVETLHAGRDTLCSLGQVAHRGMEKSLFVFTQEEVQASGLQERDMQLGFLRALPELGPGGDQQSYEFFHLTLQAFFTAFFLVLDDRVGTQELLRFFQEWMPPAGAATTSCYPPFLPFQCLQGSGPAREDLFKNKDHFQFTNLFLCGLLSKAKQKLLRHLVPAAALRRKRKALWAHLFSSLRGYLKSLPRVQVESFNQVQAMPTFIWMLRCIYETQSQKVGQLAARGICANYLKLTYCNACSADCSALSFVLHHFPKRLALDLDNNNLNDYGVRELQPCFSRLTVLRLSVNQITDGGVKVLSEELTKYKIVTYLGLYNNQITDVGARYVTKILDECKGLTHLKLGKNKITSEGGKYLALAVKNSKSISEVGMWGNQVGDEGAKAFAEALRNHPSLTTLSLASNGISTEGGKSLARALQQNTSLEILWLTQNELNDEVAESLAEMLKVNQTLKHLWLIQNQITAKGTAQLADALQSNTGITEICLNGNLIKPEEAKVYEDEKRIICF
Protocol: RNA analysis: Total RNA was extracted using RNeasy™ Plus Mini kit (Qiagen). After isolation, 1-5 μg total RNA was reverse-transcribed, in the presence of oligo (dT) primer, according to the manufacturer (SuperScript First-Strand Synthesis, Invitrogen). First strand cDNA was diluted and analyzed in triplicates with gene-specific primers by realtime PCR, using a Stratagene Mx3000p sequence detection system with SYBR Green PCR master mix (Applied Biosystems). The gene expression (fold induction) was normalized with the respective levels of beta-actin or cyclophilin (CPH) expression. For TaqMan™-based quantitative PCR, assays were performed using TaqMan™ Gene Expression Master Mix with validated primers and probes (TNF: Hs00174128_ml, IL1B: Hs01555410_ml, IL6: Hs00985639_ml, NOD1: Hs00196075_ml, ACTB: hs999999903_ml) from Applied Biosystems.

[6] = tested on: IKKγ/NEMO, MYD88, FLIP, CARD6, APAF1 or NLRC4 over-expression; assay: Gene transfection NF-κB luciferase, HEK 293T; format: cell-based, human

Chain of NOD1 association with RIP2, Bid, or SGT-1 (O43353 whole entry partner, one chain of several): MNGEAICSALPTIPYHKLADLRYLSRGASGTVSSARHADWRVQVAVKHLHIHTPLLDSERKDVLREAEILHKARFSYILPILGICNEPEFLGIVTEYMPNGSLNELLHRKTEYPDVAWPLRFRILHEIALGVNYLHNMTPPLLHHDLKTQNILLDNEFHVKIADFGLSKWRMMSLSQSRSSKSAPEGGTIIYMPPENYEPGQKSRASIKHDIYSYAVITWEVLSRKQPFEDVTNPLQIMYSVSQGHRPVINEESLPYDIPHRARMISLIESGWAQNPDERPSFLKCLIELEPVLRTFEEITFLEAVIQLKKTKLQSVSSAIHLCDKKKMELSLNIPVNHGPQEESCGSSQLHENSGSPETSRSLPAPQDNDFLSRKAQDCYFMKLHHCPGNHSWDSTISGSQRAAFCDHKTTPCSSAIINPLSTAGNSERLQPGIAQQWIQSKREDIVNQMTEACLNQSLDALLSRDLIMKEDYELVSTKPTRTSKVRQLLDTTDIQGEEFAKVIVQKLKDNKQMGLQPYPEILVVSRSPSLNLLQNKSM
Chain of NOD2 (Q9HC29 whole entry): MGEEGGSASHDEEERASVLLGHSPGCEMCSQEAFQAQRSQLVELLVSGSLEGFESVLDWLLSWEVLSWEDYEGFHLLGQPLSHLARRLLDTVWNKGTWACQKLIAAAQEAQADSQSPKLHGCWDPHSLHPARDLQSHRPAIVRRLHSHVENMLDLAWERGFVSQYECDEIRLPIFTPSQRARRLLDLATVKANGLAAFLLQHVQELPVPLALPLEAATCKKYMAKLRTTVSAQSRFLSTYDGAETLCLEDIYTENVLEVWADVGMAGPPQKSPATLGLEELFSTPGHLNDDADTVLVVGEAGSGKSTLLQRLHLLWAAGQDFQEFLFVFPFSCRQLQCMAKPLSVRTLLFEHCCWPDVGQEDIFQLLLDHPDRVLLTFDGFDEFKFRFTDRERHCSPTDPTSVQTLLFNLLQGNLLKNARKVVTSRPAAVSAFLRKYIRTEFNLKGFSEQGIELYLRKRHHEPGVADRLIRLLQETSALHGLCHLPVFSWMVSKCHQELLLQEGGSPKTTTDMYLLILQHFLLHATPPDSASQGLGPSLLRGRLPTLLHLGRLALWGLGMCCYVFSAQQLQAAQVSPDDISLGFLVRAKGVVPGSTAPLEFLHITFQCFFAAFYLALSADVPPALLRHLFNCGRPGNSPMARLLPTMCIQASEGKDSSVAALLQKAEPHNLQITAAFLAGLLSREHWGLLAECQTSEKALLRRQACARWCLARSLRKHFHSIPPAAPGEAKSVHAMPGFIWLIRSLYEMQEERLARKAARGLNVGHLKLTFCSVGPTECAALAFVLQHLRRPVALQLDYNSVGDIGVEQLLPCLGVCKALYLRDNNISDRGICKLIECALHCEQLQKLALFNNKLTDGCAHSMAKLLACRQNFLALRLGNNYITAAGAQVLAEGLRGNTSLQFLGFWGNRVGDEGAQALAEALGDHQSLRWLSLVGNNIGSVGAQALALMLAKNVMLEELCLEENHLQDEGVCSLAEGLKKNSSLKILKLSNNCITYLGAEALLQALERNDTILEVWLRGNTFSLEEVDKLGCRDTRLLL

Cc1ccc(S(=O)(=O)n2c(N)nc3ccccc32)cc1 [Compound 1]
Plasma Stability (% Remaining at 3 hrs) (Plasma stability, mouse; Mouse, 3 hrs): 100/100 % Remaining
Stability in plasma (in words) (Plasma stability, mouse; mouse): high
Plasma Stability (% Remaining at 3 hrs) (Plasma stability, human; Human, 3 hrs): 100/100 % Remaining
Stability in plasma (in words) (Plasma stability, human; human): high
IC50 (TNF-α induced NF-κB; Homo sapiens, HEK-293T, read-out: TNF-α IC50(μM)): > 20 µM
Activity on TNFα induced NF-κB (in words) (TNF-α induced NF-κB; reporter assay, listed as CID1088438): selective
Effect on NF-κB activation induced by BAFF [1]: not inhibited
Plasma Protein Binding (% Bound) ([2]; 1 μM): 97.74 % Bound
Plasma Protein Binding (% Bound) ([2]; 10 μM): 97.45 % Bound
Plasma protein binding (in words) ([2]; human): high
NOD2 compartmentalization (NOD2): No changes
Effect on NF-κB-inducible SEAP activity induced by TLR agonists (TLR1, 2, 4, 5, 6 and 8): No inhibitory effects
Effect on NF-κB activity induced by TLR9 ligand CpG DNA (TLR9): did not inhibit
Interference with NOD1 association with RIP2, Bid, or SGT-1 [3]: did not interfere
Microsomal Stability (% Remaining at 1 hr) ([4]; Mouse, 1 hr): 0.83 % Remaining
Stability in microsomes (in words) ([4]; mouse): low
Plasma Protein Binding (% Bound) ([5]; 1 μM): 95.45 % Bound
Plasma Protein Binding (% Bound) ([5]; 10 μM): 94.91 % Bound
Plasma protein binding (in words) ([5]; mouse): high
γ-tri-DAP-induced expression of IkBα at the mRNA level (NOD1): inhibited
Impact on NF-κB in cells over-expressing IKKγ/NEMO, MYD88, FLIP, CARD6, APAF1 or NLRC4 [6]: No significant impact
